Measurements published in ChEMBL document CHEMBL1201862, “PubChem BioAssay data set” (2004).
The source made the active and inactive calls.

How the values were obtained:
[1] = NIH-3T3 fibroblast cytotoxicity, dose response, cytotoxicity control, cell-based, fluorescence, Alamar Blue, secondary assay (AID 2327); type: functional;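 note: NIH-3T3 mouse fibroblasts cultured with fluconazole at 8 µg/mL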
Caspase-3 = target: T1, Caspase-3 (Homo sapiens, UniProt P42574); type: functional;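 note: Dose-response selectivity test against caspase-3 for candidate inhibitors of sentrin-specific proteases (SENPs)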
T1 sequence (P42574 whole entry): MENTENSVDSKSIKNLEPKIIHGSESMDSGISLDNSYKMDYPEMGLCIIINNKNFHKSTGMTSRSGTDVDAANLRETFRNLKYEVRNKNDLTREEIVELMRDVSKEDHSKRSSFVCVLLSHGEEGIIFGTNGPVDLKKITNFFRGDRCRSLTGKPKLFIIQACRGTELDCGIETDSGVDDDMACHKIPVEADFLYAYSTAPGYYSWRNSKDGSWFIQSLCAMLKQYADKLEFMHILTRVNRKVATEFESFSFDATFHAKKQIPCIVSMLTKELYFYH

[2] = target: Serine/threonine-protein phosphatase PP1-alpha catalytic subunit (Homo sapiens, UniProt P62136); experiment: PP1 phosphatase inhibitors, dose response, biochemical, fluorescence (AID 2394)
[3] = target: Serine/threonine-protein phosphatase (Homo sapiens, UniProt Q9BPW0); experiment: PP5 phosphatase inhibitors, dose response, biochemical, fluorescence (AID 2395)
Genome polyprotein = Genome polyprotein (dengue virus type 2, UniProt P29990); experiment: Dengue-2 NS5 methyltransferase inhibitors, primary screen, biochemical, confirmation dose response (AID 588689); type: functional
Genome polyprotein, sequence (P29990 2492-3391 limits assumed): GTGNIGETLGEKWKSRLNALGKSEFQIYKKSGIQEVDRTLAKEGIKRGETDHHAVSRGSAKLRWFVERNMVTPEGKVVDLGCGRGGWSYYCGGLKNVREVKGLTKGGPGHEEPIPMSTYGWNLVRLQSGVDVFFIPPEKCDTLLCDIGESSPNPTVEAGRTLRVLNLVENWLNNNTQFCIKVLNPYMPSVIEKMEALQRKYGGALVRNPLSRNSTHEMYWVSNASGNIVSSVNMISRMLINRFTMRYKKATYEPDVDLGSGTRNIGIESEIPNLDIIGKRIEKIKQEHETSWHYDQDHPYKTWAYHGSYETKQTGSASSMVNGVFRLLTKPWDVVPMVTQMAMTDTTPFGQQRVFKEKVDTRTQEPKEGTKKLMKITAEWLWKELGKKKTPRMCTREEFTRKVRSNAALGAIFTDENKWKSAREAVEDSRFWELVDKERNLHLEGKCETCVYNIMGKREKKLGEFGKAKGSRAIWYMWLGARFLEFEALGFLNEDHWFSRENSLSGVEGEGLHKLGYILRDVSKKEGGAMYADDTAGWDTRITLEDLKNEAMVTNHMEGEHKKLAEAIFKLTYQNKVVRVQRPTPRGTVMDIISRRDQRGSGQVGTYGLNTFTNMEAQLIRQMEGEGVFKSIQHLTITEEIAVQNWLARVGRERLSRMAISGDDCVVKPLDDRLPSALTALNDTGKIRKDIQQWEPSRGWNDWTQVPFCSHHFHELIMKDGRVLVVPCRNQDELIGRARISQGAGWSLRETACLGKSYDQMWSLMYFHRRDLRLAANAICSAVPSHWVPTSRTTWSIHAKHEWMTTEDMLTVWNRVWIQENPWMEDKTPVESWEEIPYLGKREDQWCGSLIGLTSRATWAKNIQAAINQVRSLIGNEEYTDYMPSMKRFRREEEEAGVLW

Serine/threonine-protein phosphatase, sequence (Q9BPW0 whole entry): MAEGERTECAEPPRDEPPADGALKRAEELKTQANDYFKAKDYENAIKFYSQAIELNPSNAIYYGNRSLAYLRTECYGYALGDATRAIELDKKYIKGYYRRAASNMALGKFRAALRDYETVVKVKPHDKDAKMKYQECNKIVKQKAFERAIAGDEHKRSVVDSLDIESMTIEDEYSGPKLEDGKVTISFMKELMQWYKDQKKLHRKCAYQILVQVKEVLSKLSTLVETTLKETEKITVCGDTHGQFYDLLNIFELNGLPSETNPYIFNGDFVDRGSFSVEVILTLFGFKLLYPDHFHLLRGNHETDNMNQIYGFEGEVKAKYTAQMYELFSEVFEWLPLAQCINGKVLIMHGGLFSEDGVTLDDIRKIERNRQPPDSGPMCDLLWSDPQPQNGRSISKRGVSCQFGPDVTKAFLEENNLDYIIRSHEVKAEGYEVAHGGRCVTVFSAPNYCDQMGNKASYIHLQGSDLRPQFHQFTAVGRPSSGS
Serine/threonine-protein phosphatase PP1-alpha catalytic subunit, sequence (P62136 whole entry): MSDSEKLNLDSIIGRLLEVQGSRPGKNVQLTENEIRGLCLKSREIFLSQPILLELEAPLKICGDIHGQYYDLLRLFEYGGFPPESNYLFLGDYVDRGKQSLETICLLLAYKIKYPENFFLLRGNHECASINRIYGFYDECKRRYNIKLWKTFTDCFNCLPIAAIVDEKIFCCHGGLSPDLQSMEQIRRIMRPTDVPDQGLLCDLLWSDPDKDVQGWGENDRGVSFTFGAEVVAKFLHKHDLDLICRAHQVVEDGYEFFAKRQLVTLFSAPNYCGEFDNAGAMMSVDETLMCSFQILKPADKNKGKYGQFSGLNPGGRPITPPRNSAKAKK

Structure (SMILES)	EC50 [1]	IC50 (Caspase-3)	IC50 [2]	IC50 [3]	IC50 (Genome polyprotein)
Cc1ccc(NC2=CC(=O)C(=O)c3ccccc32)cc1	20.5 µM (active)	31 µM (active)	–	–	–
O=C(O)c1ccc(S(=O)(=O)/N=C2\C=C(Nc3ccccc3F)C(=O)c3ccccc32)cc1	–	–	15.5 µM (not active)	> 67 µM (not active)	11.2 µM (active)
